Results published in patent US20160200757A1, “TYLOSIN A ANALOGS AND DERIVATIVES” (AbbVie Inc., priority 2014, published 2016).
Values after ≈ are worked out from the molar mass of the structure shown.

Tests used:
[1] = Pharmacokinetic study, oral dosing in Sprague-Dawley rats (AUC/D); format: in vivo; conditions: dosed orally in rats; dose-normalized plasma AUC
Protocol: (§1) Compounds were dosed orally to Sprague-Dawley rats, using appropriate formulations and doses. Serial blood samples were collected at selected time points post-dosing. Plasma was separated from the blood by centrifugation. 25 μL of plasma (sample, standard or QC) was combined with 25 μL of internal standard and 250 μL acetonitrile. Following vortexing to mix, the plates were centrifuged to separate the precipitated proteins. A 50 μL aliquot of the supernatant was transferred to a clean 96-well plate and diluted with 100 μL 0.1% formic acid. Stock standards were prepared in DMSO, with intermediate dilutions in acetonitrile:water (50:50, by volume). Samples were analyzed by LC-MS. The drug level curves were used to calculate dose-normalized area under the curve (AUC/D) data, which are reported as μg-hr/mL per mg/kg.

[2] = Parent vs. metabolite levels in plasma after oral dosing in rats; format: in vivo; conditions: oral 20 mg/kg, based on AUC(0-∞), 10 plasma samples over 12 hours, vs 4″-debenzylated metabolite
Protocol: Pharmacokinetic properties of compounds having three non-hydrogen substituents at the alpha-position of the ester (i.e., a tri-substituted ester) were further examined. A compound having a 4″-tri-substituted ester moiety (Compound 14) was compared to a di-substituted control compound. The compounds were dosed orally, 20 mg/kg, in rats.
Pharmacokinetic properties of compounds having a 4″-benzyl moiety were further examined. A compound having a 4″-halobenzyl moiety (Compound 10) was compared to a compound having an unsubstituted 4″-benzyl moiety. The compounds were dosed orally, 20 mg/kg, in rats.

E. faecalis ATCC29212 = test: Broth microdilution MIC; format: cell-based; conditions: Enterococcus faecalis, 35° C., approximately 20 hours
Protocol: (§2) Minimum inhibitory concentration (“MIC”) values for the isolates were determined using a broth microdilution method. The wells of a standard 96-well microdilution plate (Costar 3795, Corning Inc., Corning, N.Y.) were filled with 150 μL of an appropriate diluent. For test compounds supplied as powders, Column 1 was filled with 300 μL of either the investigational or comparator agents at the appropriate stock concentration (40× the highest test concentration). A Biomek 200 was used to make eleven 2-fold serial dilutions to create a “mother plate”. For compounds supplied as DMSO stocks, compounds were diluted to 50× the highest test concentrations and 2-fold serial dilutions were made manually.
(§3) For compounds supplied as solids, “daughter plates” were loaded with 185 μL using the Multidrop 384. These daughter plates were prepared on the Biomek F/X instrument which transferred 5 μL of drug solution from each well of the mother plate to each corresponding well of each daughter plate in a single step. For compounds supplied as DMSO stock, daughter plates were filled with 90 μL of media and 2 μL of drug solution from each well of the mother plate was added to each corresponding well manually.
(§4) A suspension of standardized inoculum for each organism, equivalent to a 0.5 McFarland standard, was diluted 1:10 in Mueller Hinton II broth resulting in a final concentration of approximately 5×10^5 CFU/mL during testing. Inocula were transferred to compartments of sterile reservoirs divided by length. The Biomek 2000 was used to inoculate all plates. Daughter plates were placed on the Biomek 2000 in reverse orientation so that plates were inoculated from low to high drug concentration. The Biomek 2000 delivered 10 μL of standardized inoculum into each well of the appropriate daughter plate. The final concentration of DMSO (if used as a solvent) in the test wells was 2.5%.
(§5) Plates were stacked 3 high, covered with a lid on the top plate, placed into plastic bags, and incubated at 35° C. for approximately 20 hours. […] MIC values were read where visible growth of the organism was inhibited.

H. influenza ATCC49247 = test: Broth microdilution MIC; format: cell-based; conditions: Haemophilus influenzae, 35° C., approximately 20 hours
Protocol: as §2, §3, §4, §5

S. aureus ATCC29213 = test: Broth microdilution MIC; format: cell-based; conditions: Staphylococcus aureus, 35° C., approximately 20 hours
Protocol: as §2, §3, §4, §5

S. epidermis ATCC49134 = test: Broth microdilution MIC; format: cell-based; conditions: Staphylococcus epidermidis, 35° C., approximately 20 hours
Protocol: as §2, §3, §4, §5

S. pneumonia ATCC49619 = test: Broth microdilution MIC; format: cell-based; conditions: Streptococcus pneumoniae, 35° C., approximately 20 hours
Protocol: as §2, §3, §4, §5

[3] = Pharmacokinetic study, oral dosing in BALB/c mice (AUC/D); format: in vivo; conditions: dosed orally in mice; when Compound 43 was dosed, levels of Compound 19 were measured; when Compound 46 was dosed, levels of Compound 10
Protocol: as §1, with “Alternatively, compounds” for “Compounds”, “BALB/c mice,” for “Sprague-Dawley rats,”
When Compound 43 was dosed, levels of Compound 19 were measured; when Compound 46 was dosed, levels of Compound 10 were measured. Thus, Compounds 43 and 46 serve as prodrugs for Compounds 19 and 10, respectively. Administration of 4′″-modified prodrugs provided greater exposure to the 4′″ deacylated metabolite as compared to administration of the corresponding metabolite itself. […]

[4] = system: Staphylococcus aureus ATCC 25923; test: Agar disc diffusion assay (zone of inhibition); format: cell-based; conditions: 10 μg on 7 mm paper disc (antibacterial standard)
Protocol: Antibacterial tests were performed on a series of tylosin A derivatives via the ‘agar disc diffusion’ assay. This assay is employed to determine the sensitivity of pathogens to chemical entities under investigation and is a standardized procedure outlined in 1961 by the World Health Organization.
Bacteria tested were a standard gram positive organism; Staphylococcus aureus ATCC 25923 (available from the American Type Culture Collection).
Colonies of bacteria are dispensed into liquid Mueller-Hinton II broth (available from Becton, Dickinson and Company), agitated and then streaked onto prepared Mueller-Hinton agar plates. Bacteria were allowed to grow for 16 hours at 37 degrees C. A sterile loupe was used to select 4-5 isolates from the cultures thus grown, and dispensed into Mueller-Hinton broth. […]
To obtain a dose response curve against Staphylococcus aureus, 20 μL (20 nanomoles) of each tylosin A derivative to be tested as obtained from the company compound repository at 1 mM stock solution in DMSO was dispensed onto a 7 mm blank paper disc (available from BBL, Le Pont du Claire, France). […] At this time, the ‘zone of inhibition’ around each 7 mm paper disc (inclusive of the disc itself) was measured and recorded in Table 6 below.

| Molecule | AUC/D [1] [μg-hr/mL per mg/kg] | Parent % [2] [%] | MIC (E. faecalis ATCC29212) [µg/mL] | MIC (H. influenza ATCC49247) [µg/mL] | MIC (S. aureus ATCC29213) [µg/mL] | MIC (S. epidermis ATCC49134) [µg/mL] | MIC (S. pneumonia ATCC49619) [µg/mL] | AUC/D [3] [μg-hr/mL per mg/kg] | Zone of inhibition [4] [mm] |
| --- | --- | --- | --- | --- | --- | --- | --- | --- | --- |
| CC[C@H]1OC(=O)C[C@@H](O)[C@H](C)[C@@H](O[C@@H]2O[C@H](C)[C@@H](O[C@H]3C[C@@](C)(O)[C@@H](OCc4ccccc4)[C@H](C)O3)[C@H](N(C)C)[C@H]2O)[C@@H](CC=O)C[C@@H](C)C(=O)/C=C/C(C)=C/[C@@H]1CO[C@@H]1O[C@H](C)[C@@H](O)[C@@H](OC)[C@H]1OC [Compound G, Tylosin A 4″ O-Benzyl] | 0.05 | 95 | 2 (≈ 1.99 µM) | 16 (≈ 15.9 µM) | 4 (≈ 3.98 µM) | 2 (≈ 1.99 µM) | 0.25 (≈ 0.248 µM) | – | – |
| CC[C@H]1OC(=O)C[C@@H](O)[C@H](C)[C@@H](O[C@@H]2O[C@H](C)[C@@H](O[C@H]3C[C@@](C)(O)[C@@H](O)[C@H](C)O3)[C@H](N(C)C)[C@H]2O)[C@@H](CC=O)C[C@@H](C)C(=O)/C=C/C(C)=C/[C@@H]1CO[C@@H]1O[C@H](C)[C@@H](O)[C@@H](OC)[C@H]1OC [Tylosin A, 2-((4R,5S,6S,7R,9R,11E,13E,15R,16R)-6-(((2R,3R,4R,5S,6R)-5-(((2S,4R,5S,6S)-4,5-dihydroxy-4,6-dimethyltetrahydro-2H-pyran-2-yl)oxy)-4-(dimethylamino)-3-hydroxy-6-methyltetrahydro-2H-pyran-2-yl)oxy)-16-ethyl-4-hydroxy-15-((((2R,3R,4R,5R,6R)-5-hydroxy-3,4-dimethoxy-6-methyltetrahydro-2H-pyran-2-yl)oxy)methyl)-5,9,13-trimethyl-2,10-dioxooxacyclohexadeca-11,13-dien-7-yl)acetaldehyde] | 0.0097 | – | 1 (≈ 1.09 µM) | 16 (≈ 17.5 µM) | 2 (≈ 2.18 µM) | 1 (≈ 1.09 µM) | 0.25 (≈ 0.273 µM) | 0.0054 | – |
| Gentamicin | – | – | – | – | – | – | – | – | 23 |
